# Reference: ChEMBL document CHEMBL1201862, “PubChem BioAssay data set” (2004)
# Activity calls are given as the source filed them.
# Key:
# Bcl-2-related protein A1 = biological target: T1, Bcl-2-related protein A1 (Mus musculus, UniProt Q07440); assay type: functional;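 note: confirmatory dose–response counterscreen on Bfl-1, used to check hits from a UBC13 polyubiquitin inhibitor campaign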
# T1 sequence (Q07440 whole entry): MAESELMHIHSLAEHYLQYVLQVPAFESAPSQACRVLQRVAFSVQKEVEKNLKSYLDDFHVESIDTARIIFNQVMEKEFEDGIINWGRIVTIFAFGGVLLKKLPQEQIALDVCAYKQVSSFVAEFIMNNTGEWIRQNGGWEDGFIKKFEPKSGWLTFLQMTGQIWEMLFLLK
# [1] = biological target: T2, Ubiquitin-conjugating enzyme E2 N (Homo sapiens, UniProt P61088); assay type: functional
# T2 sequence (P61088 whole entry): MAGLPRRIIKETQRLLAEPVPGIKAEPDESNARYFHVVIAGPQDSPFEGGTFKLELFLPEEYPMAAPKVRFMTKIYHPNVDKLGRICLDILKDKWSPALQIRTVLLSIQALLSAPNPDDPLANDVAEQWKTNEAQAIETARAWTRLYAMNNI
# [2] = biological target: T2, Ubiquitin-conjugating enzyme E2 N; assay type: functional; remark: listed apart in the source
# HEK293 = test: EBV LMP1 TES2 canonical NF-kB signalling blockers – cell-based, HEK293, luciferase, cherry-pick, dose response (AID 588343); assay type: functional; settings: Homo sapiens
# INS1 = test: INS-1E survival protection against cytokine death – cell-based, luminescence, retest, dose response (AID 449756); assay type: functional; settings: Rattus norvegicus;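 note: cell death triggered by IL-1 beta plus TNF-alpha plus IFN-gamma mixture; protective hits raise ATP signal compared with cytokine alone wells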
# [3] = luciferase reporter signal suppression in cells – H4 neuroglioma cells, luminescence, dose response (AID 1990); assay type: functional, cell-based
# [4] = Luminescence Cell-Based Dose Response HTS to Identify Inhibitors of 5'UTR Stem-Loop Driven Prion Protein mRNA Translation in H4 Neuroglioblastoma Cells. [Related pubchem assays: 1827 (Project Summary), 1813 (Primary HTS)]; assay type: functional
# [5] = biological target: T3, Heat shock factor protein 1 (Mus musculus, UniProt P38532); test: decrease of HSF1-responsive luciferase luminescence – cell-based, NIH3T3, dose retest, confirmation (AID 2382); assay type: functional;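 note: NIH3T3 fibroblasts with HSF1-driven luciferase reporter stressed by proteasome inhibitor MG132; luminescence from HSF1-driven luciferase expression after 8 hours of MG132 stress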
# T3 sequence (P38532 whole entry): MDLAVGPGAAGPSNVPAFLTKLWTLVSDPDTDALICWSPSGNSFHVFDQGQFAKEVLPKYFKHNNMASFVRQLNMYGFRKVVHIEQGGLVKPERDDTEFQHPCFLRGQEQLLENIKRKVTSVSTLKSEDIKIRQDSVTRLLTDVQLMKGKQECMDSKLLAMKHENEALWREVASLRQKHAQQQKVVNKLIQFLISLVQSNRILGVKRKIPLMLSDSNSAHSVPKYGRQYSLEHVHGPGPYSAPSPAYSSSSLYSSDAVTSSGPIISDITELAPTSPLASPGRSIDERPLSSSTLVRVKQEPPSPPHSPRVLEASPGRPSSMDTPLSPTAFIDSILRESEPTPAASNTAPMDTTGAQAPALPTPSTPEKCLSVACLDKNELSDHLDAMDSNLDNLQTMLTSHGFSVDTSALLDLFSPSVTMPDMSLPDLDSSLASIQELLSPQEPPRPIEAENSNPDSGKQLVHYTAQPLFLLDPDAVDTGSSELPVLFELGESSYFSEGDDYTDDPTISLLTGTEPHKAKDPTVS
# [6] = alpha-synuclein stem-loop luciferase translation blockers – H4 neuroglioma cells, luminescence, confirmation (AID 1988); assay type: functional, cell-based
# [7] = A549 cell cytotoxicity, dose response, cytotoxicity control, plate reader, cherry-pick, antagonist series (AID 743412); assay type: functional, cell-based
# [8] = blockers of bursicon-stimulated LGR2 cAMP reporter – cell-based, HEK293, CRE-luciferase reporter, cherry pick, set 2, dose response (AID 743343); assay type: functional;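 note: transfected cells were stimulated with diluted bursicon conditioned medium after compound addition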
# [9] = blockade of melanocortin 4 receptor signaling – cell-based, plate reader, cherry pick, counter-screen for LGR2 antagonist project, dose response (AID 743444); assay type: functional;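 note: transfected HEK 293 cells stimulated with alpha-MSH peptide; potency of inhibitors of the alpha-MSH evoked signal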
# [10] = viability loss in HEK293 cells – cell-based, plate reader, cherry-picked samples, cytotoxicity control, dose response (AID 743446); assay type: functional
# [11] = biological target: T4, RNA-binding protein pos-1 (Caenorhabditis elegans, UniProt G5EF15); test: disruptors of C. elegans POS-1 RNA interaction – biochemical, fluorescence polarization, dose response (AID 1964);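 note: purified POS-1 fused to maltose binding protein made in E. coli; potency of compounds blocking POS-1 binding to fluorescent RNA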
# T4 sequence (G5EF15 whole entry): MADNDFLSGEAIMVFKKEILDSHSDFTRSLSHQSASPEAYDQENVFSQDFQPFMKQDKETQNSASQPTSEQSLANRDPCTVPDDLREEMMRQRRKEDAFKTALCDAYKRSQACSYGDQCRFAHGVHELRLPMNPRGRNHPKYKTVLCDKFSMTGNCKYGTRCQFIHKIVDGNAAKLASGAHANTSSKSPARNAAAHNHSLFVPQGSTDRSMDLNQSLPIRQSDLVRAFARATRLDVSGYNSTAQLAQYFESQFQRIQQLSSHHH
# [12] = tested on: Streptococcus sp. 'group A'; test: Streptococcus pyogenes SK(-)GAS viability under kanamycin – luminescence, BacTiterGlo, confirmation, counter-screen for streptokinase expression inhibitor project, dose response (AID 1900); assay type: functional, organism-based
# Streptococcus = test: GAS UMAA2166 growth inhibition – luminescence, BacTiterGlo, counter-screen for streptokinase expression inhibitor project, dose response (AID 1915); assay type: functional, organism-based;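 note: potency for reduction of bacterial viability or growth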
# [13] = THP-1 cell cytotoxicity, dose response, cytotoxicity control for non-replicating M. tuberculosis project (AID 489025); assay type: functional
# [14] = Vero E6 cell cytotoxicity, dose response, cytotoxicity control for non-replicating M. tuberculosis project, secondary assay (AID 492998); assay type: functional, VeroE6; settings: Vero C1008
# Trypsin = Trypsin (Sus scrofa, UniProt P00761); test: trypsin protease activity blockade – biochemical, quenched peptide fluorescence, cherry-pick, selectivity assay for Rce1 protease inhibitor project, dose response (AID 488789)
# CAAX prenyl protease 2 [15] = biological target: T5, CAAX prenyl protease 2 (Saccharomyces cerevisiae S288c, UniProt Q03530); assay type: biochemical
# T5 sequence (Q03530 whole entry): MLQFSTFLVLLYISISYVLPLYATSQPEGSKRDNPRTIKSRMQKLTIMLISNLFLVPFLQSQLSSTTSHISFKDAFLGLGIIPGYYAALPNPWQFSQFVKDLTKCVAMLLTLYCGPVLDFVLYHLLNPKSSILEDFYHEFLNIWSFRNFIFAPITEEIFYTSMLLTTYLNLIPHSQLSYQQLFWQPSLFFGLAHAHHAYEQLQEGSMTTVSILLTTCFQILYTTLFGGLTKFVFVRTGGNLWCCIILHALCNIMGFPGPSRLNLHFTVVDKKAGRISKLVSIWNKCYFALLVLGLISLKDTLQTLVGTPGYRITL
# [16] = Trypanosoma cruzi growth suppression in host cells – NIH3T3 host cells, beta-gal luminescence, confirmation (AID 2044); assay type: functional, cell-based;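 note: intracellular parasites grown in NIH/3T3 mouse fibroblasts as host cells; luminescent beta-galactosidase reporter signal from transgenic T. cruzi replicating inside host cells; inhibitors lower the luminescence signal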
# [17] = NIH3T3 cell viability loss – ATP luminescence, mouse fibroblasts, counter-screen, dose response (AID 2010); assay type: functional, cell-based;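 note: cells exposed to compound for about 90 hours before reading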
# CAAX prenyl protease 2 [18] = biological target: T6, CAAX prenyl protease 2 (Homo sapiens, UniProt Q9Y256); test: inhibition of Ras-converting CAAX protease Rce1 – biochemical, yeast membranes, quenched-peptide fluorescence, cherry-pick, dose response (AID 588849)
# T6 sequence (Q9Y256 whole entry): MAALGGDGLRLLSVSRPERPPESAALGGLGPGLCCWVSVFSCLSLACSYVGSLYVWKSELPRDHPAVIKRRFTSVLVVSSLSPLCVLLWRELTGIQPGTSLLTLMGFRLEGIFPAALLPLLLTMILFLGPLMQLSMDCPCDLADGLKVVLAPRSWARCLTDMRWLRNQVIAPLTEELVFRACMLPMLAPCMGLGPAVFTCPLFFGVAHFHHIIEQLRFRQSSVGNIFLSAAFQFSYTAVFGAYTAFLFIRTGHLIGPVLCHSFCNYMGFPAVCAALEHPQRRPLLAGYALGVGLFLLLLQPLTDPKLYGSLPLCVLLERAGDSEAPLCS
# [19] = biological target: T7, Short transient receptor potential channel 4 (Mus musculus, UniProt Q9QUQ5); test: block of DAMGO-driven TRPC4 calcium entry – cell-based, HEK293 TRPC4/mu-opioid, Fluo-4 calcium, dose response (AID 434942); assay type: functional;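 note: potency of inhibitors blocking the TRPC4 calcium response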
# T7 sequence (Q9QUQ5 whole entry): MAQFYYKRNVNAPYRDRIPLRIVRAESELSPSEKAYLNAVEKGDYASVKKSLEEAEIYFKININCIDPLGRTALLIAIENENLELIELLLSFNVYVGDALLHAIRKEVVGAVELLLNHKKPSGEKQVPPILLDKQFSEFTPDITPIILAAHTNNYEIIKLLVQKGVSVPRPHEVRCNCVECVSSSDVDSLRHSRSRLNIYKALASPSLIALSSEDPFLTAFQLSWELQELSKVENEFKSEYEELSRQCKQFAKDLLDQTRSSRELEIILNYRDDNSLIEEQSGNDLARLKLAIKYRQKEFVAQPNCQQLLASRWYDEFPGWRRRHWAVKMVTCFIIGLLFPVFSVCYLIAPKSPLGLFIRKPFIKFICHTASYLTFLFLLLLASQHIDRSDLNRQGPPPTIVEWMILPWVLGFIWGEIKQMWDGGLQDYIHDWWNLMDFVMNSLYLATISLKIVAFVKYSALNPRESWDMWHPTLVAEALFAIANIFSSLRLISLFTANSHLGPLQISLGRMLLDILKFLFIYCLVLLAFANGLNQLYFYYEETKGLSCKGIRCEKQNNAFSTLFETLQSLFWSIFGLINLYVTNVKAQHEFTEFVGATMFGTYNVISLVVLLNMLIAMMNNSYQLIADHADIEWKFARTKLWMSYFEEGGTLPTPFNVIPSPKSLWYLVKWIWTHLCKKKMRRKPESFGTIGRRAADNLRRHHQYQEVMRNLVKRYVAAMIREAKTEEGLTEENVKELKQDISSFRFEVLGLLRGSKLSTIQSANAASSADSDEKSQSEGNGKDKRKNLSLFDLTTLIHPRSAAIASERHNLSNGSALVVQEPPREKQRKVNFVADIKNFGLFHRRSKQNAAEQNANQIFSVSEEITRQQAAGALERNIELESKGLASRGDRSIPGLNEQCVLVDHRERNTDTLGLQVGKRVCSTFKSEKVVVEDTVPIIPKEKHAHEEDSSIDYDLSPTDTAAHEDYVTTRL
# Trypsin, sequence (P00761 whole entry): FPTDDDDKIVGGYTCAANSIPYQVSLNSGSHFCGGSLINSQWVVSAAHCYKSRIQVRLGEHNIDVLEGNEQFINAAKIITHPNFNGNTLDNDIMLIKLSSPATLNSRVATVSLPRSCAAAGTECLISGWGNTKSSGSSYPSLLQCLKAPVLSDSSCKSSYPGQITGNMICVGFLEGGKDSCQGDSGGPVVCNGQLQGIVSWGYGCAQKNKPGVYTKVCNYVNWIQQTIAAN
structure (smiles),measurement,setting,value
Cc1ccc(C(C(=O)NCC2CCCO2)N(C(=O)c2snc(C(N)=O)c2N)c2ccc3c(c2)OCCO3)cc1 (stereo unspecified),IC50,Bcl-2-related protein A1,> 20 µM (inactive)
same,IC50,[1],12.6 µM (active)
same,IC50,[2],13.1 µM (active)
CCC(=O)NC(c1cc(Cl)c2cccnc2c1O)C1CC1 (stereo unspecified),AC50,HEK293,10.1 µM (active)
same,AC50,INS1,1.89 µM (active)
COc1cccc(-c2nc3cc(N4CCN(C)CC4)ccc3[nH]2)c1,EC50,[3],9.73 µM (inconclusive)
same,EC50,[4],5.7 µM (active)
same,EC50,[5],< 0.16 µM (active)
same,EC50,[6],9.34 µM (inconclusive)
same,AC50,HEK293,0.857 µM (active)
same,AC50,[7],> 52 µM (inactive)
same,AC50,[8],2.55 µM (active)
same,AC50,[9],1.57 µM (active)
same,AC50,[10],> 52 µM (inactive)
CC/C(=C\C=C\[C@@H]1C=C[C@@H]2CCC[C@H]2[C@@H]1C(=O)c1ccc[nH]1)[C@@H]1O[C@@H]([C@@H](C)C(=O)O)CC[C@@H]1C,EC50,[3],14.2 µM (active)
same,EC50,[11],> 300 µM (inconclusive)
same,EC50,[12],0.202 µM (active)
same,EC50,[4],14.4 µM (active)
same,EC50,[6],> 120 µM (not active)
same,EC50,Streptococcus,0.147 µM (active)
same,CC50,[13],12.4 µM (active)
same,CC50,[14],16.5 µM (active)
Cc1cccc2[nH]c3c(N4CCC5(CC4)OCCO5)ncnc3c12,AC50,Trypsin,36.5 µM (active)
same,AC50,CAAX prenyl protease 2 [15],13.7 µM (active)
Cc1nc(N2CCOCC2)c2c(C)c(C(=O)Nc3ccc(C(F)(F)F)cc3)sc2n1,EC50,[16],0.522 µM (active)
same,EC50,[17],> 60 µM (not active)
same,AC50,CAAX prenyl protease 2 [15],5.99 µM (active)
COc1ccc(C)c2sc(NC(=O)C3=COCCO3)nc12,EC50,[5],> 195 µM (not active)
same,AC50,Trypsin,18.8 µM (active)
same,AC50,CAAX prenyl protease 2 [18],13.4 µM (active)
O=C(COC(=O)Cn1cnc2ccccc2c1=O)Nc1ccccc1Sc1ccc(Cl)cc1,EC50,[19],1.88 µM (active)
